Experimental data reported in patent US9611252B2 (LifeSci Pharmaceuticals, Inc., priority 2013, dated 2017).

What follows are compounds tested against human Plasma Kallikrein (Homo sapiens (Human), UniProt P03952) (assay: In vitro enzyme inhibition of human plasma kallikrein (PFR-AMC cleavage)). Conditions: human plasma kallikrein, Pro-Phe-Arg-AMC substrate, 37° C.; read-out: hPK IC50.
Format: biochemical
Protocol: The ability of the compounds disclosed herein to inhibit human plasma kallikrein activity was quantified according to the procedures below.
A 10 mM solution of the test compound was made in DMSO. […] A control tube containing only DMSO is included. 16 μL of each compound test solution was combined with 384 μL of assay buffer (50 mM Tris-HCl pH 7.5, 150 mM NaCl, 0.01% Triton X-100) to yield a “4× test compound buffer stock”.
These solutions are hereby referred to as 4×hPK and 2×PFR-AMC, respectively.
50 μL was removed from this mixture and placed into duplicate wells on a Microfluor 1Black U-bottom microtiter plate (Thermo Scientific). This plate was incubated for 5 minutes at 37° C. To each well, 50 μL of pre-warmed 2×PFR-AMC was added to start the enzymatic reaction. Cleavage of PFR-AMC was monitored in a Biotek Synergy H4 reader set at 37° C. Readings are taken every 43 seconds for 1 hour. […] The IC50 is calculated using the Gen5 (Biotek Instruments).
The ability of the compounds in Table 3 to inhibit human plasma kallikrein activity was determined.

human Plasma Kallikrein, sequence (P03952 20-638): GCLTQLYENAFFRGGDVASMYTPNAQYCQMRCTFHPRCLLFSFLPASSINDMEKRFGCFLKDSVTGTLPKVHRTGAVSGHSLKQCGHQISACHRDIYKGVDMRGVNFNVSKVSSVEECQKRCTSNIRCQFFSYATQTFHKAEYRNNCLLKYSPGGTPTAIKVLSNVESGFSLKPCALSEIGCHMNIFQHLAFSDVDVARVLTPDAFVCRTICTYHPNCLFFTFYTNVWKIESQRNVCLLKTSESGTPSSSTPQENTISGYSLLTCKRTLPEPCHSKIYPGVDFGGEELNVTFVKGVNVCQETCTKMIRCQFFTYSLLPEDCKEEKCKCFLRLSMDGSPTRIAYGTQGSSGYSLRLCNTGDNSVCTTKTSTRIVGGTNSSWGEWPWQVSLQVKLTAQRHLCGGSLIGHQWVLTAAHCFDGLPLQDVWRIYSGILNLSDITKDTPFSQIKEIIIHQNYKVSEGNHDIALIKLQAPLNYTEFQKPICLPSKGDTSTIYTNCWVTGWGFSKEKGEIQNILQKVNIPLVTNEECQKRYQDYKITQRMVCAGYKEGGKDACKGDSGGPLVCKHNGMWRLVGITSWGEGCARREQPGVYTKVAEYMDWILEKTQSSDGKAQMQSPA

Row | SMILES | IC50
1 | COC(=O)c1cc(Cc2cc(C(=O)NCc3c(C)cc(N)nc3C)ccn2)cc2cc(Cl)cnc12 [Example 92, methyl 6-((4-(((6-amino-2,4-dimethylpyridin-3-yl)methyl)carbamoyl)pyridin-2-yl)methyl)-3-chloroquinoline-8-carboxylate] | < 100 nM
2 | Cc1cc(N)nc(C)c1CNC(=O)c1ccnc(Cc2cc(C(=O)O)c3ncc(Cl)cc3c2)c1 [Example 93, 6-((4-(((6-amino-2,4-dimethylpyridin-3-yl)methyl)carbamoyl)pyridin-2-yl)methyl)-3-chloroquinoline-8-carboxylic acid] | < 100 nM
3 | Cc1cc(N)nc(C)c1CNC(=O)c1ccnc(Cc2cc(CO)c3ncc(Cl)cc3c2)c1 [Example 94, N-((6-amino-2,4-dimethylpyridin-3-yl)methyl)-2-((3-chloro-8-(hydroxymethyl)quinolin-6-yl)methyl)isonicotinamide] | < 100 nM
4 | COC(=O)c1cc(Cc2cc(C(=O)NCc3ccc(N)nc3C)ccn2)cc2cc(Cl)cnc12 [Example 95, methyl 6-((4-(((6-amino-2-methylpyridin-3-yl)methyl)carbamoyl)pyridin-2-yl)methyl)-3-chloroquinoline-8-carboxylate] | < 100 nM
5 | Cc1nc(N)ccc1CNC(=O)c1ccnc(Cc2cc(C(=O)O)c3ncc(Cl)cc3c2)c1 [Example 96, 6-((4-(((6-amino-2-methylpyridin-3-yl)methyl)carbamoyl)pyridin-2-yl)methyl)-3-chloroquinoline-8-carboxylic acid] | 100 to 1000 nM
6 | Cc1nc(N)ccc1CNC(=O)c1ccnc(Cc2cc(CO)c3ncc(Cl)cc3c2)c1 [Example 97, N-((6-amino-2-methylpyridin-3-yl)methyl)-2-((3-chloro-8-(hydroxymethyl)quinolin-6-yl)methyl)isonicotinamide] | < 100 nM
7 | Cc1cc(N)[n+]([O-])c(C)c1CNC(=O)c1ccnc(Cc2ccc3ncc(Cl)cc3c2)c1 [Example 98, 6-amino-3-((2-((3-chloroquinolin-6-yl)methyl)isonicotinamido)methyl)-2,4-dimethylpyridine 1-oxide] | 100 to 1000 nM
8 | Cc1cc(N)nc(C)c1CNC(=O)c1ccnc(Cc2ccc3c(cc(Cl)c[n+]3[O-])c2)c1 [Example 99, 6-((4-(((6-amino-2,4-dimethylpyridin-3-yl)methyl)carbamoyl)pyridin-2-yl)methyl)-3-chloroquinoline 1-oxide] | < 100 nM
9 | Cc1nc(N)ccc1CNC(=O)c1ccnc(Cc2cc(Cl)c3ncc(Cl)cc3c2)c1 [Example 101, N-((6-amino-2-methylpyridin-3-yl)methyl)-2-((3,8-dichloroquinolin-6-yl)methyl)isonicotinamide] | < 100 nM
10 | Cc1cc(N)nc(C)c1CNC(=O)c1ccnc(Cc2ccc3ncc(Cl)cc3c2F)c1 [Example 102, N-((6-amino-2,4-dimethylpyridin-3-yl)methyl)-2-((3-chloro-5-fluoroquinolin-6-yl)methyl)isonicotinamide] | < 100 nM
11 | Cc1nc(N)ccc1CNC(=O)c1ccnc(Cc2ccc3ncc(Cl)cc3c2F)c1 [Example 103, N-((6-amino-2-methylpyridin-3-yl)methyl)-2-((3-chloro-5-fluoroquinolin-6-yl)methyl)isonicotinamide] | < 100 nM
12 | Cc1cc(C(=O)NCc2c(C)cc(N)nc2C)cc(Cc2ccc3ncc(Cl)cc3c2)n1 [Example 104, N-((6-amino-2,4-dimethylpyridin-3-yl)methyl)-2-((3-chloroquinolin-6-yl)methyl)-6-methylisonicotinamide] | < 100 nM
13 | Cc1cc(N)nc(C)c1CNC(=O)c1ccnc(Cn2ncc3cc(Cl)ccc32)c1 [Example 105, N-((6-amino-2,4-dimethylpyridin-3-yl)methyl)-2-((5-chloro-1H-indazol-1-yl)methyl)isonicotinamide] | < 100 nM
14 | Cc1cc(N)nc(C)c1CNC(=O)c1ccnc(Cn2cc3cc(Cl)ccc3n2)c1 [Example 106, N-((6-amino-2,4-dimethylpyridin-3-yl)methyl)-2-((5-chloro-2H-indazol-2-yl)methyl)isonicotinamide] | < 100 nM
15 | Cc1ccc2nn(Cc3cc(C(=O)NCc4c(C)cc(N)nc4C)ccn3)cc2c1 [Example 107, N-((6-amino-2,4-dimethylpyridin-3-yl)methyl)-2-((5-methyl-2H-indazol-2-yl)methyl)isonicotinamide] | 100 to 1000 nM
16 | Cc1ccc2c(cnn2Cc2cc(C(=O)NCc3c(C)cc(N)nc3C)ccn2)c1 [Example 108] | < 100 nM
17 | Cc1ccc2nc(S(C)(=O)=O)c(Cc3cc(C(=O)NCc4cc5c(Cl)c[nH]c5cc4F)ccn3)cc2c1 [Example 109, N-((3-chloro-6-fluoro-1H-indol-5-yl)methyl)-2-((6-methyl-2-(methylsulfonyl)quinolin-3-yl)methyl)isonicotinamide] | 100 to 1000 nM
18 | Cc1ccc2cc(Cc3cc(C(=O)NCc4ccc(N)nc4C)ccn3)ccc2n1 [Example 112, N-((6-amino-2-methylpyridin-3-yl)methyl)-2-((2-methylquinolin-6-yl)methyl)isonicotinamide] | < 100 nM

Row | SMILES | IC50
19 | Cc1cc(N)nc(C)c1CNC(=O)c1ccnc(Cc2cnc3ccc(F)cc3c2)c1 [Example 119, N-((6-amino-2,4-dimethylpyridin-3-yl)methyl)-2-((6-fluoroquinolin-3-yl)methyl)isonicotinamide] | < 100 nM
20 | O=C(NCc1cc2c(Cl)c[nH]c2cc1F)c1ccnc(Cc2cnc3ccc(F)cc3c2)c1 [Example 120, N-((3-chloro-6-fluoro-1H-indol-5-yl)methyl)-2-((6-fluoroquinolin-3-yl)methyl)isonicotinamide] | < 100 nM
21 | Cc1nc(N)ccc1CNC(=O)c1ccnc(Cc2cnc3ccc(F)cc3c2)c1 [Example 121, N-((6-amino-2-methylpyridin-3-yl)methyl)-2-((6-fluoroquinolin-3-yl)methyl)isonicotinamide] | < 100 nM
22 | Cc1cc(N)nc(C)c1CNC(=O)c1ccnc(Cc2cnc3cc(F)ccc3c2)c1 [Example 122, N-((6-amino-2,4-dimethylpyridin-3-yl)methyl)-2-((7-fluoroquinolin-3-yl)methyl)isonicotinamide] | < 100 nM
23 | O=C(NCc1cc2c(Cl)c[nH]c2cc1F)c1ccnc(Cc2cnc3cc(F)ccc3c2)c1 [Example 123, N-((3-chloro-6-fluoro-1H-indol-5-yl)methyl)-2-((7-fluoroquinolin-3-yl)methyl)isonicotinamide] | < 100 nM
24 | Nc1nccc2cc(CNC(=O)c3ccnc(Cc4cnc5cc(F)ccc5c4)c3)ccc12 [Example 124, N-((1-aminoisoquinolin-6-yl)methyl)-2-((7-fluoroquinolin-3-yl)methyl)isonicotinamide] | < 100 nM
25 | O=C(NCc1cc2c(Cl)c[nH]c2cc1F)c1ccnc(Cc2cnc3ccccc3c2)c1 [Example 125, N-((3-chloro-6-fluoro-1H-indol-5-yl)methyl)-2-(quinolin-3-ylmethyl)isonicotinamide] | < 100 nM
26 | O=C(NCc1cc2c(Cl)c[nH]c2cc1F)c1ccnc(Cc2cnc3ccc(Cl)cc3c2)c1 [Example 126, N-((3-chloro-6-fluoro-1H-indol-5-yl)methyl)-2-((6-chloroquinolin-3-yl)methyl)isonicotinamide] | < 100 nM
27 | Cc1ccc2ccc(Cc3cc(C(=O)NCc4ccc5c(N)nccc5c4)ccn3)cc2n1 [Example 127, N-((1-aminoisoquinolin-6-yl)methyl)-2-((2-methylquinolin-7-yl)methyl)isonicotinamide] | < 100 nM
28 | Cc1ccc2ccc(Cc3cc(C(=O)NCc4cc5c(Cl)c[nH]c5cc4F)ccn3)cc2n1 [Example 128, N-((3-chloro-6-fluoro-1H-indol-5-yl)methyl)-2-((2-methylquinolin-7-yl)methyl)isonicotinamide] | < 100 nM
29 | Cc1ccc2ccc(Cc3cc(C(=O)NCc4c(C)cc(N)nc4C)ccn3)cc2n1 [Example 129, N-((6-amino-2,4-dimethylpyridin-3-yl)methyl)-2-((2-methylquinolin-7-yl)methyl)isonicotinamide] | 100 to 1000 nM
30 | Cc1cc(N)nc(C)c1CNC(=O)c1ccnc(Cc2ccc3nc(C#N)ccc3c2)c1 [Example 131, N-(6-amino-2,4-dimethyl-pyridin-3-ylmethyl)-2-(2-cyano-quinolin-6-ylmethyl)-isonicotinamide] | < 100 nM
31 | Cc1cc2cc(Cc3cc(C(=O)NCc4cc5c(Cl)c[nH]c5cc4F)ccn3)ccc2cn1 [Example 133, N-((3-chloro-6-fluoro-1H-indol-5-yl)methyl)-2-((3-methylisoquinolin-6-yl)methyl)isonicotinamide] | < 100 nM
32 | CS(=O)(=O)c1ccc2cc(Cc3cc(C(=O)NCc4ccc5c(N)nccc5c4)ccn3)ccc2n1 [Example 134, N-((1-aminoisoquinolin-6-yl)methyl)-2-((2-(methylsulfonyl)quinolin-6-yl)methyl)isonicotinamide] | 100 to 1000 nM
33 | CS(=O)(=O)c1ccc2cc(Cc3cc(C(=O)NCc4cc5c(Cl)c[nH]c5cc4F)ccn3)ccc2n1 [Example 135, N-((3-chloro-6-fluoro-1H-indol-5-yl)methyl)-2-((2-(methylsulfonyl)quinolin-6-yl)methyl)isonicotinamide] | 100 to 1000 nM
34 | N#Cc1ccnc2ccc(Cc3cc(C(=O)NCc4ccc5c(N)nccc5c4)ccn3)cc12 [Example 136, N-((1-aminoisoquinolin-6-yl)methyl)-2-((4-cyanoquinolin-6-yl)methyl)isonicotinamide] | < 100 nM
35 | N#Cc1ccnc2ccc(Cc3cc(C(=O)NCc4cc5c(Cl)c[nH]c5cc4F)ccn3)cc12 [Example 137, N-((3-chloro-6-fluoro-1H-indol-5-yl)methyl)-2-((4-cyanoquinolin-6-yl)methyl)isonicotinamide] | 100 to 1000 nM
